The assay concerns Tetranvchus urticae (Two-Spotted Spider Mite). Put plainly: Tetranychus urticae bean leaf disc spray test, mobile stages mortality after 8 days, with COLBY expected action. The format is in vivo. The note with it: for C8 observed control %: C8 alone; for DMET observed control %: DMET alone; for SPAT observed control %: SPAT alone. The text has this:
The action to be expected E for a given active ingredient combination obeys the so-called COLBY formula and can be calculated as follows (COLBY, S. R. “Calculating synergistic and antagonistic responses of herbicide combination”. Weeds, Vol. 15, pages 20-22; 1967):
According to COLBY, the expected (additive) action of active ingredients A)+B) using p+q ppm of active ingredient is
If the action actually observed (O) is greater than the expected action (E), then the action of the combination is super-additive, i.e. there is a synergistic effect. In mathematical terms the synergism factor SF corresponds to O/E. In the agricultural practice an SF of ≧1.2 indicates significant improvement over the purely complementary addition of activities (expected activity), while an SF of ≦0.9 in the practical application routine signals a loss of activity compared to the expected activity.
Tetranvchus urticae (Two-Spotted Spider Mite)
Bean leaf discs on agar in 24-well microtiter plates are sprayed with test solutions (DMSO). After drying, the leaf discs are infested with mite populations of mixed ages. 8 days later, discs are checked for mobile stages (I removed “mixed population”) mortality.
Columns 4 and 5 show the control observed from the compounds alone. […] When a compound applied alone gave no control at a particular rate, it is assumed that lower rates of that compound alone also give no control. DMET=deltamethrin, SPAT=spirotetramat, C8=compound 8 in Table C.

`CCC(=O)NC1CCc2cc(C3=NOC(c4cc(Cl)cc(Cl)c4)(C(F)(F)F)C3)ccc21` (racemic) [C8]: the “C8 observed control %” value is, setting by setting: (0.094 ppm, Table 1) 0%; (0.187 ppm, Table 1) 0%; (0.375 ppm, Table 1) 0%; (0.375 ppm, Table 2) 0%; (0.75 ppm, Table 1) 25%; (0.75 ppm, Table 2) 55%. The “C8 observed control %” value (1.5 ppm, Table 1) is recorded as 65%; the “C8 observed control %” value (1.5 ppm, Table 2) was 80%; the “C8 observed control %” value (3.0 ppm, Table 2) is listed as 95%; the “C8 observed control %” value (6.0 ppm, Table 2) was 95%.

With `CC1(C)[C@H](C(=O)O[C@H](C#N)c2cccc(Oc3ccccc3)c2)[C@@H]1C=C(Br)Br` [DMET, deltamethrin], the “DMET observed control %” value amounted to 0% (0.39 ppm); 0% (0.781 ppm); 0% (1.562 ppm); 0% (3.125 ppm); 75% (6.25 ppm); 80% (12.5 ppm). In addition, the “DMET observed control %” value runs as follows: (25 ppm) 90%; (50 ppm) 90%.

Regarding `CCOC(=O)OC1=C(c2cc(C)ccc2C)C(=O)N[C@]12CC[C@@H](OC)CC2` [SPAT, spirotetramat], the “SPAT observed control %” value runs as follows: (1.56 ppm) 0%; (3.125 ppm) 0%; (3.25 ppm) 0%; (6.25 ppm) 25%; (12.5 ppm) 65%; (25 ppm) 80%. Besides, the “SPAT observed control %” value was 85% (50 ppm), 85% (100 ppm) and 80% (.25 ppm).

These data come from patent publication US9456606B2, “Pesticidal mixtures” (Syngenta Participations AG, priority 2011, dated 2016).
